Test results from US20260232636A1, “INHIBITORS OF LRRK2” (Vanderbilt University, priority 2023, published 2026).

Key:
LRRK2 WT [1] = target: T1, LRRK2 WT (Homo sapiens, UniProt Q5S007); assay: Biochemical LRRK2 LanthaScreen TR-FRET kinase assay, wild type
Description: The in-vitro LRRK2 wild type (WT) and G2019S (GS) mutant enzyme activities are assessed for their abilities to phosphorylate a peptide substrate using the LanthaScreen™ (Thermo Fisher) Time-Resolved Fluorescence Energy Transfer (TR-FRET) kinase assay format. The kinase reaction is composed of purified human LRRK2 WT or GS enzymes, a fluorescein labelled peptide substrate (LRRKtide), and ATP. Subsequently, the resulting phosphorylated LRRKtide is recognized by a Terbium-labelled antibody that specifically binds only to the phosphorylated form of LRRKtide. […] In detail, when the phosphorylated LRRKtide is bound to the Terbium (donor) labelled antibody, the FRET signal measured with a 495 nm filter specific to Terbium induces the excitation of the fluorescein (acceptor) of the phosphorylated LRRKtide. Then, this leads to the FRET emission signal measured with a 520 nm filter specific to fluorescein.
The newly synthesized LRRK2 inhibitors are evaluated for their abilities to block phosphorylation of the LRRKtide substrate by WT and GS mutant enzymes. The level of phosphorylation inhibition is proportional to the level of FRET ratio decrease. […] Each assay plate also includes 3 reference controls; (1) full kinase activity control wells containing 1% DMSO vehicle, (2) maximum kinase inhibition control wells containing 1 μM MLi-2, well-known LRRK2 inhibitor, and (3) no enzyme control wells serving as assay background level that should match to the maximum enzyme inhibition level by a 1 M MLi-2 control.
Inhibitors (1 mM stock solution in DMSO) are serially diluted 1:4 into 11 point concentration response curves in DMSO using the Bravo Liquid Handler (Agilent). […] Therefore, the final concentration of 11 point dose response curves of inhibitors ranges from 10 μM to 0.01 nM. For both full enzyme control and no enzyme control wells, 100 nL DMSO is added. For maximum enzyme inhibition wells, 100 nL of 0.1 mM MLi-2 is added.
Next, LRRK2 enzymes, substrate, and ATP are diluted as 2× in 1× kinase buffer (50 mM Tris, pH 8.5, 5 mM MgCl2, 1 mM EGTA, 0.01% BRIJ-35, 2 mM DTT). First, the purified human LRRK2 enzymes are diluted to 6 nM (2×) in a 5 μL volume per well. After adding the WT proteins (Thermo Fisher, cat #PR8604B) and GS mutant proteins (Thermo Fisher, cat #PR8764C) to separate assay plates containing inhibitors/DMSO, the plates are spun down at 100×g for 1 min and placed on a plate shaker with gentle shaking at 50 rpm to incubate enzyme with inhibitors/DMSO at 25° C. for 15 min. The kinase buffer alone (5 μL/well) is added to the no enzyme control wells. Secondly, LRRKtide substrate (Thermo Fisher #PV4901) and ATP (Thermo Fisher #PV3227) are diluted to 2× (0.4 M and 50 μM, respectively) in a 5 μL volume per well. Immediately after the 15 min enzyme incubation, 5 μL of LRRKtide and ATP mixtures are added to entire plates. The plates are spun down at 100×g for 1 min, and covered with a black lid to protect from light. Kinase reaction is allowed at 25° C. for 120 mins with gentle shaking at 50 rpm.
The kinase reaction is immediately stopped by adding 10 μL of 2× TR-FRET detection solution to entire plates. The plates were spun down at 100×g for 1 min, and covered with a black lid to protect from light. The TR-FRET detection reaction was allowed at 25° C. for 30 mins with gentle shaking at 50 rpm.
All ratio data are then normalized to % enzyme activity. Curve fitting and potencies (IC50) of the inhibitors are determined using a four-parameter logistical equation using GraphPad Prism (La Jolla, CA).

LRRK2 WT [2] = target: T1, LRRK2 WT; assay: Cellular phospho-LRRK2 S935 HTRF assay, WT-HEK293 cells; format: cell-based; settings: pS935 LRRK2 Cellular Activity Assay; HEK293 cells stably expressing human LRRK2 WT, 2 hr incubation
Description: This method utilizes two antibodies, europium-Cryptate (donor) antibody and d2-Cryptate (acceptor) antibody, specifically binding to total and phospho S935 of LRRK2, respectively. When two fluorophores are in close proximity, i.e. activation of kinase, time-resolved fluorescence energy transfer (TR-FRET) occurs where a light source excites europium donor, the 615 nm emission by europium then excites d2 acceptor. […] All cell culture reagents were purchased from Life Technologies, and phospho-LRRK2 S935 assay reagents were from Perkin Elmer (#6FLRKPEH). Briefly, the day before the assay, the cells (5,000 cells/20 μL/well) are prepared in the plating medium (growth medium without G418). […] The activities of inhibitors at WT and GS mutant are measured in separate cell plates.
For full enzyme control and maximum enzyme inhibition wells, 600 nL of DMSO and 0.2 mM MLi-2 were transferred, respectively. The final 2× compound plate is prepared by adding 60 μL of plating medium to each well. […] Compounds are incubated for 2 hrs in 37° C. humidified incubators.
During compound incubation, 4× lysis buffer and 100× blocking buffer are diluted to 1× with H2O. After 2 hr incubation, treatment medium is removed using an ELx405 Microplate washer (Agilent), and 16 μL of lysis/blocking buffer is immediately added to each well in entire plates. The plates are sealed with a plate seal, and placed on a plate shaker for 30 min at room temperature with shaking at 200 rpm.
During the lysis step, 1× antibody working solutions are prepared by diluting 40× Eu-Cryptate antibody and d2-antibody in detection buffer. After the cell plates are spun at 100×g for 1 min, 4 μL of antibody solutions is added to each well in entire plates. The plates are sealed with a plate seal, and placed on a plate shaker for 4 hrs at room temperature with shaking at 200 rpm.

T1 sequence (Q5S007 whole entry): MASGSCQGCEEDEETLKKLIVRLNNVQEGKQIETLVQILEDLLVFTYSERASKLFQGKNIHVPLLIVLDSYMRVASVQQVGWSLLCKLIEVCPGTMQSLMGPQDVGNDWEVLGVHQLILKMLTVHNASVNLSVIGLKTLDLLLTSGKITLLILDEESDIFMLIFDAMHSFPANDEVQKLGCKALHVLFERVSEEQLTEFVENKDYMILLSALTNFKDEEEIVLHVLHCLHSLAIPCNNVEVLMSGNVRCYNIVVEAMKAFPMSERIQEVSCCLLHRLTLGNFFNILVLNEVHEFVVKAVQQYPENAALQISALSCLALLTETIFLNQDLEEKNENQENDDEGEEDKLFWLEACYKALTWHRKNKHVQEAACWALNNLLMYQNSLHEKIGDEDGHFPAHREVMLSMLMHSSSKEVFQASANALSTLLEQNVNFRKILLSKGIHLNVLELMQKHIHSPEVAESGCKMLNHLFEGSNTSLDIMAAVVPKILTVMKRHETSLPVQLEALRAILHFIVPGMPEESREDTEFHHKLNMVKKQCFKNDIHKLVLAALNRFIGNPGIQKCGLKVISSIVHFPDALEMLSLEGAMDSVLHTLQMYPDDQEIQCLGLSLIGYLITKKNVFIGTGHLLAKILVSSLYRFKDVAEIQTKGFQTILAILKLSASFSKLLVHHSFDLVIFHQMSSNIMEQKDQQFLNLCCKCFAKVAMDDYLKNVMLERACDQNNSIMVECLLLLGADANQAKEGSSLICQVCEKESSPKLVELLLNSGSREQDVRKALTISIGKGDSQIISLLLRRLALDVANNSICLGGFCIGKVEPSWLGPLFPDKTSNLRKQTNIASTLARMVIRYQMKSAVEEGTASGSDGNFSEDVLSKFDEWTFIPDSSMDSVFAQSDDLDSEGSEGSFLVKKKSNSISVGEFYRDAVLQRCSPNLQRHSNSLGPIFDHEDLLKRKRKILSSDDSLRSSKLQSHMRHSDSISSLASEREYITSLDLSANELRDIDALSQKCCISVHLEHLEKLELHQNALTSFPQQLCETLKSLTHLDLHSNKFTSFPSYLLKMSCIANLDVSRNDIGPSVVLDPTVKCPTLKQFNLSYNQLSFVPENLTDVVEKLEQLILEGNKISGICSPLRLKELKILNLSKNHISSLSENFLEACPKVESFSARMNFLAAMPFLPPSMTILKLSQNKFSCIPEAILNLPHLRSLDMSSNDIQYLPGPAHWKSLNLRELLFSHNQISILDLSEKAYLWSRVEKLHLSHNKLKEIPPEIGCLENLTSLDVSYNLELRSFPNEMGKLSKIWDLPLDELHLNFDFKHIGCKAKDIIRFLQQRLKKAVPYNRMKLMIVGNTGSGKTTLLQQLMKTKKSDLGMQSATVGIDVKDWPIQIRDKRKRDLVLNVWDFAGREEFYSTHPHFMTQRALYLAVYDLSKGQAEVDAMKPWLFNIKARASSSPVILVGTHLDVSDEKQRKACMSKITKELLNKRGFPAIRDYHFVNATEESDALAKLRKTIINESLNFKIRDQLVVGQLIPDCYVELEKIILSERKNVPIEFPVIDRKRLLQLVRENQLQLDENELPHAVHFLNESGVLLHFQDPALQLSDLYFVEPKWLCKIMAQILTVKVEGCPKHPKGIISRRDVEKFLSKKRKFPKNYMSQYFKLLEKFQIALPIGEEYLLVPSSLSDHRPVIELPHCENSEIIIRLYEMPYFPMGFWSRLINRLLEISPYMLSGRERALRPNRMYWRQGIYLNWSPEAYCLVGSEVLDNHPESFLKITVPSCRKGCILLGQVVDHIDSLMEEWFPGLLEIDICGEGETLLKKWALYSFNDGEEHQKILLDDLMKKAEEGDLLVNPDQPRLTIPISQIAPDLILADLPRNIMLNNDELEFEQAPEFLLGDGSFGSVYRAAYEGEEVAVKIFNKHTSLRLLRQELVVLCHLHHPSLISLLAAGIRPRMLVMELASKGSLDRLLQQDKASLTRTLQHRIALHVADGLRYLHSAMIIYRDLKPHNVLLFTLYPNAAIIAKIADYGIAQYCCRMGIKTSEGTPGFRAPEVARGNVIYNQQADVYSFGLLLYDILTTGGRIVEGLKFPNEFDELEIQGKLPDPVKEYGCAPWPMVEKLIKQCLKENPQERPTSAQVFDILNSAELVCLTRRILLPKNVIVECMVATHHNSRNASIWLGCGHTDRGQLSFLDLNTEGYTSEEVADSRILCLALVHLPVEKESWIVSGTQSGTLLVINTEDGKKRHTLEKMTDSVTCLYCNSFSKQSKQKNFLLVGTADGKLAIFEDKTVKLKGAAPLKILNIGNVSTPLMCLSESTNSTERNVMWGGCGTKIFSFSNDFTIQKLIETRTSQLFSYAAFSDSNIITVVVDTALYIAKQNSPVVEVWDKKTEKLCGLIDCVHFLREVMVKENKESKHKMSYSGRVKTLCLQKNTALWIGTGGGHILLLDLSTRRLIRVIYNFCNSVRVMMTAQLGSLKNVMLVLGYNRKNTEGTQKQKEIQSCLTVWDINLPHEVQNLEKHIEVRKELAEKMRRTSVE

SMILES | IC50 (LRRK2 WT [1]) [µM] | IC50 (LRRK2 WT [2]) [µM] | LRRK2 WT IC50 (LRRK2 WT [2])
Cc1cc2cnn(-c3cnn(C)c3)c2cc1C1=C[C@@H]2CNC[C@@H]2C1 (racemic) [Compound 1, (rac)-6-((3aR,6aS)-1,2,3,3a,4,6a-hexahydrocyclopenta[c]pyrrol-5-yl)-5-methyl-1-(1-methyl-1H-pyrazol-4-yl)-1H-indazole] | 0.113 | 7.58 | –
Cc1cc2cnn(-c3cnn(C)c3)c2cc1C1=C[C@@H]2CN(C(=O)OC(C)(C)C)C[C@@H]2C1 (racemic) [Compound 2, (rac)-tert-butyl (3aR,6aS)-5-(5-methyl-1-(1-methyl-1H-pyrazol-4-yl)-1H-indazol-6-yl)-3,3a,4,6a-tetrahydrocyclopenta[c] pyrrole-2(1H)-carboxylate] | 2.29 | – | inactive
Cc1cc2cnn(-c3cnn(C)c3)c2cc1C1=C[C@@H]2CN(C3CCOCC3)C[C@@H]2C1 (racemic) [Compound 3, (rac)-5-methyl-1-(1-methyl-1H-pyrazol-4-yl)-6-((3aR,6aS)-2-(tetrahydro-2H-pyran-4-yl)-1,2,3,3a,4,6a-hexahydrocyclopenta[c]pyrrol-5-yl)-1H-indazole] | 0.716 | > 10 | –
Cc1cc2cnn(-c3cnn(C)c3)c2cc1[C@H]1C[C@@H]2CN(C3CCCOC3)C[C@@H]2C1 (mixture of isomers) [Compound 11, (rac)-5-methyl-1-(1-methyl-1H-pyrazol-4-yl)-6-((3aR,5s,6aS)-2-(tetrahydro-2H-pyran-3-yl)octahydrocyclopenta[c]pyrrol-5-yl)-1H-indazole] | 0.247 | 4.34 | –
Cc1cc2cnn(-c3cnn(C)c3)c2cc1[C@@H]1C[C@@H]2CN(C3CCCOC3)C[C@@H]2C1 (mixture of isomers) [Compound 12, (rac)-5-methyl-1-(1-methyl-1H-pyrazol-4-yl)-6-((3aR,5r,6aS)-2-(tetrahydro-2H-pyran-3-yl)octahydrocyclopenta[c]pyrrol-5-yl)-1H-indazole] | 0.642 | – | inactive
COC(=O)N1CCCC(N2C[C@H]3C[C@H](c4cc5c(cnn5-c5cnn(C)c5)cc4C)C[C@H]3C2)C1 (mixture of isomers) [Compound 18, (rac)-methyl 3-((3aR,5s,6aS)-5-(5-methyl-1-(1-methyl-1H-pyrazol-4-yl)-1H-indazol-6-yl)hexahydrocyclopenta[c]pyrrol-2(1H)-yl)piperidine-1-carboxylate] | 1.53 | – | inactive
COC(=O)N1CCCC(N2C[C@H]3C[C@@H](c4cc5c(cnn5-c5cnn(C)c5)cc4C)C[C@H]3C2)C1 (mixture of isomers) [Compound 19, (rac)-methyl 3-((3aR,5r,6aS)-5-(5-methyl-1-(1-methyl-1H-pyrazol-4-yl)-1H-indazol-6-yl)hexahydrocyclopenta[c]pyrrol-2(1H)-yl)piperidine-1-carboxylate] | 1.22 | – | inactive
Cc1cc2cnn(-c3cnn(C)c3)c2cc1[C@H]1C[C@@H]2CN(C(=O)c3snnc3C)C[C@@H]2C1 [Compound 9, (4-methyl-1,2,3-thiadiazol-5-yl)((3aR,5s,6aS)-5-(5-methyl-1-(1-methyl-1H-pyrazol-4-yl)-1H-indazol-6-yl)hexahydrocyclopenta[c]pyrrol-2(1H)-yl)methanone] | 0.156 | 8.43 | –
Cc1cc2cnn(-c3cnn(C)c3)c2cc1[C@@H]1C[C@@H]2CN(C(=O)c3snnc3C)C[C@@H]2C1 [Compound 10, (4-methyl-1,2,3-thiadiazol-5-yl)((3aR,5r,6aS)-5-(5-methyl-1-(1-methyl-1H-pyrazol-4-yl)-1H-indazol-6-yl)hexahydrocyclopenta[c]pyrrol-2(1H)-yl)methanone] | 0.643 | – | inactive
